Assay results taken from patent publication US6875578B2, “System for cell-based screening” (priority 1997, dated 2005).
pEC50: −log10 of the molar value. “Also recorded” adds a separate entry of the source.

Tests used:
L929 cells [1] = test: Apoptosis mitochondrial mass/potential, L929 cells; format: cell-based, mouse; settings: 30 hours
Description: (§1) Cells were plated into 96-well plates at densities of 3×10^3 to 1×10^4 cells/well. The following day apoptotic inducers were added at the indicated concentrations and cells were incubated for the indicated time periods (usually 16-30 hours). Cells were stained with 5 μg/ml Hoechst (Molecular Probes, Inc.) and 750 nM MITOTRACKER™ Red (CMXRos, Molecular Probes, Inc.) in fresh medium and incubated for 30 minutes at 37° C. Cells were washed in HBSS and fixed with 3.7% formaldehyde in HBSS at room temperature. Plates were washed with HBSS and permeabilized with 0.5% v/v TRITON™ X-100 in HBSS at room temperature. Cells were washed 2× with HBSS at room temperature and the plate was sealed. For dual labeling of mitochondria, cells were treated with 200 nM MITOTRACKER™ Green and 200 nM MITOTRACKER™ Red for 0.5 hours before fixation.
(§2) The mitochondrial membrane potential is measured by labeling mitochondria with both MITOTRACKER™ Green FM and MITOTRACKER™ Red (Molecular Probes, mc). MITOTRACKER™ Red labeling is proportional to both mass and membrane potential. MITOTRACKER™ Green FM labeling is proportional to mass. The ratio of MITOTRACKER™ Red signal to the MITOTRACKER™ Green FM signal provides a measure of mitochondrial membrane potential (Poot and Pierce, 1999). This ratio normalizes the […]. […]

BHK cells [2] = test: Apoptosis actin reorganization (f-actin content), BHK cells; format: cell-based; settings: 30 hours
Description: (§3) Cells were plated in 96-well plates at densities of 3×10^3 to 1×10^4 cells/well. The following day apoptotic inducers were added at indicated concentrations. Cells were incubated for the indicated time periods (usually 16-30 hours). The next day the medium was removed and cells were stained with 5 μg/ml Hoechst (Molecular Probes, Inc.) in fresh medium and incubated for 30 minutes at […]. Cells were washed in HBSS and fixed with 3.7% formaldehyde in HBSS at room temperature. Plates were washed with HBSS and permeabilized with 0.5% v/v Triton X-100 in HBSS at room temperature. Plates were washed in HBSS and stained with 100 μl of 1 U/ml of Alexa 488 Phalloidin stock (100 μl/well, Molecular Probes, Inc.). Cells were washed 2×with HBSS at RT and the plate was sealed.
(§4) Quantitation of f-actin content was accomplished by measuring the intensity of phalloidin staining around the nucleus. This was determined to be a reasonable approximation of a full cytoplasmic average of the intensity. The mask used to approximate this cytoplasmic measure was derived from the nuclear mask defined by the Hoechst stain. Derivation was accomplished by combinations of erosions and dilations.

BHK cells [3] = test: Apoptosis mitochondrial mass/potential, BHK cells; format: cell-based; settings: 30 hours
Description: as §1, §2

MCF-7 cells [4] = test: Apoptosis actin reorganization (f-actin content), MCF-7 cells; format: cell-based; settings: 30 hours
Description: as §3, §4

MCF-7 cells [5] = test: Apoptosis nuclear morphology, MCF-7 cells; format: cell-based; settings: 30 hours
Description: (§5) Cells were plated into 96-well plates at densities of 3×10^3 to 1×10^4 cells/well. The following day apoptotic inducers were added at indicated concentrations and cells were incubated for indicated time periods (usually 16-30 hours). The next day medium was removed and cells were stained with 5 μg/ml Hoechst (Molecular Probes, Inc.) in fresh medium and incubated for 30 minutes at 37° C. Cells were washed in Hank's Balanced Salt Solution (HBSS) and fixed with 3.7% formaldehyde in HBSS at room temperature. Cells were washed 2×with HBSS at room temperature and the plate was sealed.
(§6) Quantitation of changes in nuclear morphology upon induction of apoptosis was accomplished by (1) measuring the effective size of the nuclear region; and (2) measuring the degree of convolution of the perimeter.

MCF-7 cells [6] = test: Apoptosis mitochondrial mass/potential, MCF-7 cells; format: cell-based; settings: 30 hours
Description: as §1, §2

L929 cells [7] = test: Apoptosis nuclear morphology, L929 cells; format: cell-based, mouse; settings: 30 hours
Description: as §5, §6

L929 cells [8] = test: Apoptosis actin reorganization (f-actin content), L929 cells; format: cell-based, mouse; settings: 30 hours
Description: as §3, §4

BHK cells [9] = test: Apoptosis nuclear morphology, BHK cells; format: cell-based; settings: 30 hours
Description: as §5, §6

caspase-3 [10] = test: Caspase-3 biosensor apoptosis assay, MCF-7 cells; format: cell-based; settings: MCF-7 cells
Description: (§7) For DNA transfection, BHK cells and MCF-7 cells were cultured to 50-70% confluence in 6 well plates containing 3 ml of minimal Eagle's medium (MEM) with 10% fetal calf serum, 1 mM L-glutamine, 50 μg/ml streptomycin, 50 μg/ml penicillin, 0.1 mM non-essential amino acids, 1 mM sodium pyruvate and 10 μg/ml of bovine insulin (for MCF-7 cell only) at 37° C. in a 5% CO2 incubator for about 36 hours. The cells were washed with serum free MEM media and incubated for 5 hours with 1 ml of transfection mixture containing 1 μg of the appropriate plasmid and 4 μg of lipofectimine (BRL) in the serum free MEM media. Subsequently, the transfection medium was removed and replaced with 3 ml of normal culture media. The transfected cells were maintained in growth medium for at least 16 hours before performing selection of the stable cells based on standard molecular biology methods (Ausubel. et al 1995).
For apoptosis assays, the cells (BHK, MCF-7) stably transfected with the appropriate protease biosensor expression vector were plated on tissue culture treated 96-well plates at 50-60% confluence and cultured overnight at 37° C., 5% CO2. Varying concentrations of cis-platin, staurosporine, or paclitaxel in normal culture media were freshly prepared from stock and added to cell culture dishes to replace the old culture media. The cells were then observed with the cell screening system of the present invention at the indicated time points either as live cell experiments or as fixed end-point experiments.
This biosensor is restricted to the cytoplasm by the reactant target sequence. The reactant target sequence is the annexin II cytoskeletal binding domain ([…]) (SEQ ID NO:124) (FIG. 29C) (Eberhard et al. 1997. Mol. Biol. Cell 8:293a). The enzyme recognition site corresponds to two copies of the amino acid sequence DEVD (SEQ ID NO:60) (FIG. 29B), which serves as the recognition site of caspase-3. […]
(§8) The biosensor response is measured by quantitating the effective cytoplasm-to-nuclear translocation of the signal (see above). […]

caspase-3 [11] = test: Caspase-3 biosensor apoptosis assay, BHK cells; format: cell-based; settings: BHK cells transfected with the caspase 3 biosensor
Description: as §7
For apoptosis assays, the cells (BHK, MCF-7) stably transfected with the appropriate protease biosensor expression vector were plated on tissue culture treated 96-well plates at 50-60% confluence and cultured overnight at 37° C., 5% CO2. […]
as §8

[12] = tested on: p38 MAPK and NF-κB pathways; test: Dual labeling assay of the p38 MAPK and NF-κB pathways; format: cell-based; settings: added alone; two different cell types
Text: The assay we present here measures, as one of its parameters, p38 activation using immunolocalization of the phosphorylated form of p38 in toxin-treated cells. The assay was developed to be flexible enough to include the simultaneous measurement of other parameters within the same individual cells. Because the signal transduction pathway mediated by the transcription factor NF-κB is also known to be involved in the cell stress response, we included the activation of NF-κB as a second parameter in the same assay.
Multiple cell types, model toxins, and antibodies were tested, and significant stimulation of both pathways was measured in a high-content mode. The phospho-p38 antibodies used in this study were purchased from Sigma Chemical Company (St. Louis, Mo.). We report that at least two cell stress signaling pathways can not only be measured simultaneously, but are differentially responsive to classes of model toxins.

NF-κB [13] = test: NF-κB immunolocalization in toxin treated SNB19 cells; format: cell-based; settings: based on molecular weights of 17 kD, read-out: EC50 (NF-κB activation)
Text: (§9) For further studies, we characterized endogenous NF-κB activation by immunolocalization in toxin treated cells. The NF-κB antibodies used in this study were purchased from Santa Cruz Biotechnology, Inc. (Santa Cruz, Calif.), and secondary antibodies are from Molecular Probes (Eugene, Oreg.).
(§10) For the 3T3 and SNB19 cell types, we determined the effective concentrations that yield response levels of 50% of the maximum (EC50), expressed in units of mass per volume (ng/ml) and units of molarity. Based on molecular weights of 17 kD for both TNFα and IL-1α, the EC50 levels for these two compounds with 3T3 and SNB19 cell types are given in units of molarity in Table 1.
For these experiments, either 10 or 100 TNFα-treated 3T3 or SNB19 cells/well were tested. On the basis of the standard deviations measured for these samples, and by taking t-values for the student's t-test, we have estimated the minimum detectable doses for each case of cell type, compound, number of cells per well, and for different choices of how many wells are sampled per condition. The latter factor determines the number of degrees of freedom that are provided in the sample of data. […] If the false positive rate is relaxed to 20%, a concentration of approximately half that value can be detected (0.83 ng/ml). […]

NF-κB [14] = test: NF-κB immunolocalization in toxin treated 3T3 cells; format: cell-based
Text: as §9, §10
For these experiments, either 10 or 100 TNFα-treated 3T3 or SNB19 cells/well were tested. On the basis of the standard deviations measured for these samples, and by taking t-values for the student's t-test, we have estimated the minimum detectable doses for each case of cell type, compound, number of cells per well, and for different choices of how many wells are sampled per condition. The latter factor determines the number of degrees of freedom that are provided in the sample of data. Increasing the number of wells from 4 to 16, and increasing the number of cells per well from 10 to 100, improves the minimum detectable doses considerably. […] If the false positive rate is relaxed to 20%, a concentration of approximately half that value can be detected (0.83 ng/ml). One hundred cells can conveniently be sampled over a cell culture surface area of less than 1 mm^2.

[15] = tested on: microtubule arrays (tubulin-GFP chimera); test: Microtubule disruption assay, LLCPK cells with tubulin-GFP biosensor; format: cell-based, pig; settings: 10-500 nM, 12 hour time point
Description: For microtubule disruption assays, LLCPK cells stably transfected with a tubulin-GFP biosensor plasmid were plated on 96 well cell culture dishes at 50-60% confluence and cultured overnight at 37° C., 5% CO2. […] The cells were then observed with the cell screening system described above, at a 12 hour time point.

caspase-3 [16] = settings: MCF-7 cells; accompanied by cleavage of PARP; cited from earlier work

## CN[C@@H]1C[C@H]2O[C@@](C)([C@@H]1OC)n1c3ccccc3c3c4c(c5c6ccccc6n2c5c31)C(=O)NC4 [staurosporine]
L929 cells [1]
  mitochondrial changes (mass / membrane potential): clear increase in mitochondrial mass; also recorded: increases in mitochondrial mass
BHK cells [2]
  change in peri-nuclear f-actin content: dose-dependent increase in f-actin
BHK cells [2]; listed as Staurosporine
  change in peri-nuclear f-actin content: induced increases in f-actin
BHK cells [3]
  mitochondrial changes (mass / membrane potential): either a decrease in membrane potential at lower concentrations of staurosporine, or an increase in mass at higher concentrations of staurosporine; also recorded: increases in mitochondrial mass
MCF-7 cells [4]
  change in peri-nuclear f-actin content: either a decrease or increase depending on the concentration of staurosporine
MCF-7 cells [4]; listed as Staurosporine
  change in peri-nuclear f-actin content: concentration-dependent response
MCF-7 cells [5]
  change in nuclear morphology: nuclear condensation
MCF-7 cells [6]
  mitochondrial changes (mass / membrane potential): consistent decrease in mitochondrial membrane potential; also recorded: a decrease in membrane potential
L929 cells [7]
  change in nuclear morphology: dose-dependent change in nuclear morphology
L929 cells [7]; listed as Staurosporine
  change in nuclear morphology: classic nuclear fragmentation
L929 cells [8]
  change in peri-nuclear f-actin content: dose-dependent increases in f-actin content
L929 cells [8]; listed as Staurosporine
  change in peri-nuclear f-actin content: induced increases in f-actin
BHK cells [9]
  change in nuclear morphology: concentration dependent changes
BHK cells [9]; listed as Staurosporine
  change in nuclear morphology: nuclear condensation at lower doses and nuclear fragmentation at higher doses
caspase-3 [10]; maximum magnitude
  magnitude of caspase activation relative to comparator: approximately one-half that demonstrated with cis-platin in BHK cells

## N.N.[Cl][Pt][Cl] [cis-platin]
caspase-3 [11]
  caspase activation reported by the biosensor: accumulation of fluorescence in the nucleus

## tumor necrosis factor [TNFα]
[12]
  differential response of the p38 MAPK and NF-κB pathways: activators of specific pathways
NF-κB [13]
  pEC50: 11.23
NF-κB [14]
  EC50 value (NF-κB activation): 0.15 ng/mL
NF-κB [14]; based on molecular weights of 17 kD, read-out: EC50 (NF-κB activation)
  pEC50: 11.06

## C=CC[C@@H](CC/C(C)=C/C=C/CC/C=C\[C@@H]1CSC([C@@H]2C[C@@H]2C)=N1)OC [Curacin A]
[15]
  Response of microtubule arrays: Destabilization

## CC[C@]1(O)C[C@@H]2CN(CCc3c([nH]c4ccccc34)[C@@](C(=O)OC)(c3cc4c(cc3OC)N(C)[C@H]3[C@@](O)(C(=O)OC)[C@H](OC(C)=O)[C@]5(CC)C=CCN6CC[C@]43[C@@H]65)C2)C1 [Vinblastine]
[15]
  Response of microtubule arrays: Destabilization

## COc1cc([C@@H]2c3cc4c(cc3[C@@H](O[C@@H]3O[C@@H]5CO[C@@H](C)O[C@H]5[C@H](O)[C@H]3O)[C@H]3COC(=O)[C@H]23)OCO4)cc(OC)c1O [etoposide]
caspase-3 [16]
  time of peak response in caspase-3 activity after stimulation: 6 h
caspase-3 [10]; 15 h treatment with 100 μM etoposide
  Caspase-3 activity with the caspase biosensor: not detected

## IL-1α: model toxin, molecular weight 17 kD
[12]
  differential response of the p38 MAPK and NF-κB pathways: activators of specific pathways
NF-κB [13]
  pEC50: 10.23
NF-κB [14]; based on molecular weights of 17 kD
  EC50 (NF-κB activation): 0.24 10^−12 moles/liter

## COc1ccc(C[C@H]2NC[C@H](O)[C@H]2OC(C)=O)cc1 [Anisomycin]
[12]
  differential response of the p38 MAPK and NF-κB pathways: activators of specific pathways

## COC(=O)Nc1nc2ccc(C(=O)c3cccs3)cc2[nH]1 [Nocodazole]
[15]
  Response of microtubule arrays: Destabilization
